Measurements from patent US4303785A, “Antitumor anthracycline antibiotics” (priority 1978, dated 1981).
Values after ≈ are worked out from the molar mass of the structure shown. Read-outs that look alike come from different tables or passages of the source.

How the values were obtained:
L1210 cells [1] = assay: animal or person; format: in vivo, CDF1 mice; conditions: for response vs control in vivo at 0.15 mg/kg / response vs control in vivo at 0.31 mg/kg / response vs control in vivo at 0.625 mg/kg / response vs control in vivo at 1.25 mg/kg / response vs control in vivo at 2.5 mg/kg / response vs control in vivo at 5 mg/kg: Mus musculus, L1210, ip, 1080 h
Method: D. Representative compounds of general formula I" were tested against experimental animal tumors as follows: […]
CDF1 mice were administered intraperitoneally (i.p.) with 1×10^5 cells/mouse of L1210 cells. After 24 hours had elapsed since inoculation, the mice were administered the test compounds intraperitoneally once daily for 10 consecutive days and observed for a 45 day period.
The antitumor activity was shown by the prolongation rate of survival day (T/C, %) to the survival day of control mice injected with physiological saline.

[2] = test system: NADPH-cytochrome P450 reductase; assay: Stability on rat hepatic NADPH-cytochrome P450 reductase: 7-deoxyaglycone formed (Table 7); format: in vitro ADME; conditions: 25° C., 25 min., nitrogen; substrate 0.1 mM, NADPH 0.2 mM, enzyme 4.6 μg./ml, pH 8.0
Method: C. The marked antitumor effects seen from A and B above were confirmed by the stability of the test compounds on the inactivation by hepatic NADPH-cytochrome P450 reductase. Specifically, NADPH-cytochrome P450 reductase purified from rat liver homogenate was incubated with the tetrahydropyranyl ether derivatives of formula I' at 25° C. for 25 min. in nitrogen gas phase, and the incubation product formed, 7-deoxyaglycone, was determined as shown in Table 7.

L1210 leukemia cells = assay: Growth inhibitory effect on L1210 cells in culture (Table 4); format: cell-based; conditions: Mus musculus, read-out: Inhibition Rate (growth)
Method: For example, L1210 cells (5×10^4 cells/ml.) were inoculated in RPMI 1640 medium (Roswell Park Memorial Institute 1640) containing 20% calf serum and cultivated at 37° C. in the presence of 0.1 and 0.5 μg./ml. of the test compounds in a CO2 incubator.

L1210 cells [3] = assay: Inhibition of 14C-uridine and 14C-thymidine incorporation (nucleic acid synthesis) in L1210 cells in culture (Table 5); format: cell-based; conditions: Mus musculus, L1210, 1 h, 60 min. at 37° C.
Method: The effect of the tetrahydropyranyl ether derivatives of formula I' on nucleic acid synthesis was examined as follows: […]
1×10^5 cells/ml. of L1210 cells were suspended in RPMI medium containing 10% calf serum, pre-cultivated at 37° C. for 1 to 2 hours in a CO2 incubator and then the test compounds were added to the medium at various concentrations. After 15 min. of incubation, ^14 C-uridine (0.05 μCi/ml.) or ^14 C-thymidine (0.05 μCi/ml.) was added and incubated at 37° C. for 60 min. Trichloroacetic acid (TCA) (10%) was added to the incubation medium to stop the reaction and precipitate the acid-insoluble materials, and then the precipitate was washed three times with 5 to 10% […]. The radioactivity was measured and expressed as 50% inhibition concentration of incorporation.

L1210 leukemia = assay: Antitumor activity in BDF1 mice inoculated with L1210 leukemia cells (Table 6); format: in vivo; conditions: once daily for 10 days
Source text: As an example, BDF1 mice were inoculated intraperitoneally with 1×10^6 cells/mouse of L1210 leukemia cells.

[4] = 2.5 mg/kg/day i.p., once daily for 10 days
[5] = 5 mg/kg/day i.p., once daily for 10 days
[6] = read-out: Antitumor Activity (T/C, prolongation rate of survival day), 0.15 mg/kg/day i.p., once daily for 10 days
[7] = read-out: Antitumor Activity (T/C, prolongation rate of survival day), 0.31 mg/kg/day i.p., once daily for 10 days
[8] = read-out: Antitumor Activity (T/C, prolongation rate of survival day), 0.625 mg/kg/day i.p., once daily for 10 days
[9] = read-out: Antitumor Activity (T/C, prolongation rate of survival day), 1.25 mg/kg/day i.p., once daily for 10 days
[10] = 0.15 mg/kg/day i.p., once daily for 10 days
[11] = 0.31 mg/kg/day i.p., once daily for 10 days
[12] = 0.625 mg/kg/day i.p., once daily for 10 days
[13] = 1.25 mg/kg/day i.p., once daily for 10 days
[14] = read-out: Antitumor Activity (T/C, prolongation rate of survival day), 2.5 mg/kg/day i.p., once daily for 10 days
[15] = 0.15 mg/kg/day i.p., once daily for 10 days, read-out: Antitumor Activity (T/C, prolongation rate of survival day)
[16] = 0.31 mg/kg/day i.p., once daily for 10 days, read-out: Antitumor Activity (T/C, prolongation rate of survival day)
[17] = 0.625 mg/kg/day i.p., once daily for 10 days, read-out: Antitumor Activity (T/C, prolongation rate of survival day)
[18] = read-out: Antitumor Activity (T/C, prolongation rate of survival day), 5 mg/kg/day i.p., once daily for 10 days

Row | SMILES | Antitumor Activity (T/C, prolongation rate of survival day) (L1210 cells [1]; [4]) [%] | Antitumor Activity (T/C, prolongation rate of survival day) (L1210 cells [1]; [5]) [%] | response vs control in vivo at 0.15 mg/kg (L1210 cells [1]; [6]) [%] | response vs control in vivo at 0.31 mg/kg (L1210 cells [1]; [7]) [%] | response vs control in vivo at 0.625 mg/kg (L1210 cells [1]; [8]) [%] | response vs control in vivo at 1.25 mg/kg (L1210 cells [1]; [9]) [%] | Antitumor Activity (T/C, prolongation rate of survival day) (L1210 cells [1]; [13]) [%] | also measured
1 | CCOC(C)O[C@@H]1[C@H](C)O[C@@H](O[C@H]2C[C@](O)(C(C)=O)Cc3c(O)c4c(c(O)c32)C(=O)c2c(OC)cccc2C4=O)C[C@@H]1N (single isomer, unassigned) [Example 16-a, 4'-O-(1-ethyloxyethyl) daunomycin a] | 157 | 217 | 96 | 96 | 104 | 102 |  | 
2 | CCOC(C)O[C@@H]1[C@H](C)O[C@@H](O[C@H]2C[C@](O)(C(C)=O)Cc3c(O)c4c(c(O)c32)C(=O)c2c(OC)cccc2C4=O)C[C@@H]1N (single isomer, unassigned) [Example 16-b, 4'-O-(1-ethyloxyethyl) daunomycin b] | 133 | 247 |  |  |  |  | 112 | Antitumor Activity (T/C, prolongation rate of survival day) (L1210 cells [1]; [10]): 90%; Antitumor Activity (T/C, prolongation rate of survival day) (L1210 cells [1]; [11]): 96%; Antitumor Activity (T/C, prolongation rate of survival day) (L1210 cells [1]; [12]): 108%
3 | COc1cccc2c1C(=O)c1c(O)c3c(c(O)c1C2=O)C[C@@](O)(C(C)=O)C[C@@H]3O[C@H]1C[C@H](N)[C@H](OC(C)OCC(C)C)[C@H](C)O1 (single isomer, unassigned) [Example 17-a, 4'-O-(1-isobutyloxyethyl) daunomycin a] |  | 156 | 100 | 100 | 100 | 100 |  | response vs control in vivo at 2.5 mg/kg (L1210 cells [1]; [14]): 119%
4 | COc1cccc2c1C(=O)c1c(O)c3c(c(O)c1C2=O)C[C@@](O)(C(C)=O)C[C@@H]3O[C@H]1C[C@H](N)[C@H](OC(C)OCC(C)C)[C@H](C)O1 (single isomer, unassigned) [Example 17-b, 4'-O-(1-isobutyloxyethyl) daunomycin b] | 113 | 188 |  |  |  |  | 106 | Antitumor Activity (T/C, prolongation rate of survival day) (L1210 cells [1]; [10]): 100%; Antitumor Activity (T/C, prolongation rate of survival day) (L1210 cells [1]; [11]): 100%; Antitumor Activity (T/C, prolongation rate of survival day) (L1210 cells [1]; [12]): 100%
5 | CCCCOC(C)O[C@@H]1[C@H](C)O[C@@H](O[C@H]2C[C@](O)(C(C)=O)Cc3c(O)c4c(c(O)c32)C(=O)c2c(OC)cccc2C4=O)C[C@@H]1N (single isomer, unassigned) [Example 18-a, 4'-O-(1-butyloxyethyl) daunomycin a] | 116 | 144 | 110 | 103 | 110 | 116 |  | 
6 | CCCCOC(C)O[C@@H]1[C@H](C)O[C@@H](O[C@H]2C[C@](O)(C(C)=O)Cc3c(O)c4c(c(O)c32)C(=O)c2c(OC)cccc2C4=O)C[C@@H]1N (single isomer, unassigned) [Example 18-b, 4'-O-(1-butyloxyethyl) daunomycin b] | 151 | 188 |  |  |  |  | 110 | Antitumor Activity (T/C, prolongation rate of survival day) (L1210 cells [1]; [10]): 103%; Antitumor Activity (T/C, prolongation rate of survival day) (L1210 cells [1]; [11]): 96%; Antitumor Activity (T/C, prolongation rate of survival day) (L1210 cells [1]; [12]): 110%
7 | COc1cccc2c1C(=O)c1c(O)c3c(c(O)c1C2=O)C[C@@](O)(C(=O)COC1CCCCO1)C[C@@H]3O[C@H]1C[C@H](N)[C@H](OC2CCCCO2)[C@H](C)O1 (single isomer, unassigned; isomer a) [4',14-di-O-PAa, 4',14-bis(O-tetrahydropyranyl)adriamycin (isomer a)] |  |  |  |  |  |  |  | Product (7-Deoxyaglycone) [2]: 13.1 nmoles/tube; inhibition at 0.1 µg/mL (L1210 leukemia cells; L1210, 0.1 μg./ml.): 37.5%; inhibition at 0.5 µg/mL (L1210 leukemia cells; L1210, 0.5 μg./ml.): 80.8%; IC50 (L1210 cells [3]; thymidine, read-out: 50% Inhibition Concentration of 14C-Thymidine Incorporation): 0.55 µg/mL (≈ 0.773 µM); IC50 (L1210 cells [3]; uridine, read-out: 50% Inhibition Concentration of 14C-Uridine Incorporation): 0.23 µg/mL (≈ 0.323 µM); Antitumor Activity (T/C, prolongation rate of survival day) (L1210 leukemia; 0.15 mg./kg./day i.p.): 96%; Antitumor Activity (T/C, prolongation rate of survival day) (L1210 leukemia; 0.3 mg./kg./day i.p.): 103%; Antitumor Activity (T/C, prolongation rate of survival day) (L1210 leukemia; 0.6 mg./kg./day i.p.): 96%; Antitumor Activity (T/C, prolongation rate of survival day) (L1210 leukemia; 1.25 mg./kg./day i.p.): 109%; Antitumor Activity (T/C, prolongation rate of survival day) (L1210 leukemia; 2.5 mg./kg./day i.p.): 115%; Antitumor Activity (T/C, prolongation rate of survival day) (L1210 leukemia; 5 mg./kg./day i.p.): 154%
8 | COc1cccc2c1C(=O)c1c(O)c3c(c(O)c1C2=O)C[C@@](O)(C(=O)CO)C[C@@H]3O[C@H]1C[C@H](N)[C@H](OC2CCCO2)[C@H](C)O1 (some centres unmarked) [Example 4, 4'-O-tetrahydrofuranyl adriamycin] | 360 | 314 |  |  |  |  | 179 | response vs control in vivo at 0.15 mg/kg (L1210 cells [1]; [15]): 105%; response vs control in vivo at 0.31 mg/kg (L1210 cells [1]; [16]): 111%; response vs control in vivo at 0.625 mg/kg (L1210 cells [1]; [17]): 136%
9 | COc1cccc2c1C(=O)c1c(O)c3c(c(O)c1C2=O)C[C@@](O)(C(=O)CO)C[C@@H]3O[C@H]1C[C@H](N)[C@H](OC2CCCC(COC(C)=O)O2)[C@H](C)O1 (some centres unmarked) [Example 6, 4'-O-(6-acetoxymethyltetrahydropyranyl) adriamycin] |  |  | 100 | 88 | 106 | 118 |  | response vs control in vivo at 2.5 mg/kg (L1210 cells [1]; [14]): 118%; response vs control in vivo at 5 mg/kg (L1210 cells [1]; [18]): 141%
10 | COc1cccc2c1C(=O)c1c(O)c3c(c(O)c1C2=O)C[C@@](O)(C(C)=O)C[C@@H]3O[C@H]1C[C@H](N)[C@H](OC2CCCO2)[C@H](C)O1 (some centres unmarked) [Example 12, 4'-O-(tetrahydrofuranyl) daunomycin] |  |  |  |  |  |  |  | response vs control in vivo at 0.15 mg/kg (L1210 cells [1]; [15]): 99%; response vs control in vivo at 0.31 mg/kg (L1210 cells [1]; [16]): 105%; response vs control in vivo at 0.625 mg/kg (L1210 cells [1]; [17]): 111%; response vs control in vivo at 1.25 mg/kg (L1210 cells [1]; 1.25 mg/kg/day i.p., once daily for 10 days, read-out: Antitumor Activity (T/C, prolongation rate of survival day)): 111%; response vs control in vivo at 2.5 mg/kg (L1210 cells [1]; 2.5 mg/kg/day i.p., once daily for 10 days, read-out: Antitumor Activity (T/C, prolongation rate of survival day)): 160%; response vs control in vivo at 5 mg/kg (L1210 cells [1]; 5 mg/kg/day i.p., once daily for 10 days, read-out: Antitumor Activity (T/C, prolongation rate of survival day)): 346%
11 | COC(=O)C1CCCC(O[C@@H]2[C@H](C)O[C@@H](O[C@H]3C[C@](O)(C(C)=O)Cc4c(O)c5c(c(O)c43)C(=O)c3c(OC)cccc3C5=O)C[C@@H]2N)O1 (some centres unmarked) [Example 15, 4'-O-(6-carbomethoxytetrahydropyranyl) daunomycin] |  |  | 100 | 100 | 100 | 100 |  | response vs control in vivo at 2.5 mg/kg (L1210 cells [1]; [14]): 106%; response vs control in vivo at 5 mg/kg (L1210 cells [1]; [18]): 131%
